The test system of assay [1] is EMC-BAC-2 (Non-Small Cell Lung Carcinoma). Description: Bliss excess, mean over the matrix (fraction); higher = more synergy. Summed up:
(§1)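 Cell lines in DMEM/F12 or RPMI with 10% FBS were plated in 1536-well plates, held 24 hours at 37°C, 5% CO2, then given two-drug dose matrices for 72 hours (DMSO typically 0.2%). Viability was read by CellTiter-Glo 2.0 luminescence and scaled as inhibition from 0 (vehicle wells) to 1 (blank wells). Combination Emax is the second-highest inhibition in the matrix; Bliss excess is observed combination effect minus expected EA + EB − EA·EB, EA and EB being single-agent effects.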

Another assay deals with GI-1 (Glioblastoma). The assay is described as above. The essentials: as §1
The next assay deals with IMR-5 (Neuroblastoma). The description is as above. Summed up: as §1
Assay [2] concerns KYSE-150 (Esophageal Squamous Cell Carcinoma). The description is as above. Summed up:
as §1

The subject of assay [3] is KYSE-50 (Esophageal Squamous Cell Carcinoma). The description is as above. Summed up:
as §1

A further assay relates to NB7 (Neuroblastoma). The description is as above. The essentials: as §1
Assay [4] deals with NCI-H1573 (Lung Adenocarcinoma). Described as above. Summed up: as §1
The test system of assay [5] is NCI-H2347 (Lung Adenocarcinoma). The description is as above. The essentials: as §1
Assay [6] deals with NCI-N87 (Gastric Carcinoma). The description is as above. Summed up: as §1
Assay [7] deals with OCUM-1 (Gastric Carcinoma). The assay is described as above. The essentials: as §1
For assay [8], the system named is PF-382 (T-Lymphoblastic Leukemia). The description is as above. The essentials:
as §1

A further assay deals with RPMI-7951 (Melanoma). The assay is described as above. Summed up: as §1
The test system of assay [9] is SNU-C1 (Colorectal Carcinoma). Described as above. Summed up: as §1
The subject of assay [10] is ASH-3 (Thyroid Gland Carcinoma). Description: combination Emax (second highest fraction inhibited in the dose matrix, 72 h); higher = more inhibition; extreme values may be limits of the assay. Summed up:
as §1

Another assay deals with EW-18 (Ewing's Sarcoma). The assay is described as above. Summed up:
as §1

Assay [11] concerns KINGS-1 (Low Grade Glioma). The assay is described as above. Summed up: as §1
Assay [12] deals with LOU-NH91 (Squamous Cell Lung Carcinoma). Described as above. Summed up: as §1
For assay [13], the system named is OCUM-1 (Gastric Carcinoma). The description is as above. The essentials:
as §1

For assay [14], the system named is SNU-C1 (Colorectal Carcinoma). The assay is described as above. The essentials:
as §1

Assay [15] has as its system VMRC-LCD (Lung Adenocarcinoma). The description is as above. The essentials: as §1

This is an account of results in the supplement of paper PMC11061612.
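For Bliss excess, mean over the matrix in this document: after 72 h of two-drug dosing.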

In the case of `NC1(C(=O)N[C@@H](CCO)c2ccc(Cl)cc2)CCN(c2ncnc3[nH]ccc23)CC1` [Capivasertib] + Cn1cnc2c(F)c(Nc3ccc(Br)cc3Cl)c(C(=O)NOCCO)cc21 [Selumetinib] (first compound max 10 µM, 7x7, partner max 10 µM), the Bliss excess in assay [1] was -0.0445; with GI-1 (Glioblastoma) it was 0.0399; in the assay with IMR-5 (Neuroblastoma), 0.0034; in [2], 0.0676; in assay [3] it was -0.036; with NB7 (Neuroblastoma), -0.0045. Moreover, the Bliss excess in [4] was 0.0019; in [5] it was -0.0158; in assay [6], 0.01; in assay [7], -0.0299; in [8] it was 0.0266; in the assay with RPMI-7951 (Melanoma) it was -0.0415. Also, in [9], the Bliss excess is -0.0085. Besides, the “combination Emax” value in [10] turned out to be 0.773; with EW-18 (Ewing's Sarcoma), 0.656; in assay [11], 0.597; in [12], 0.487; in [13], 0.937; in assay [14], 0.703. In assay [15], the “combination Emax” value turned out to be 0.248.
For the molecule `CC(=O)c1c(C)c2cnc(Nc3ccc(N4CCNCC4)cn3)nc2n(C2CCCC2)c1=O` [Palbociclib] + CC1(C)CCC(CN2CCN(c3ccc(C(=O)NS(=O)(=O)c4ccc(NCC5CCOCC5)c([N+](=O)[O-])c4)c(Oc4cnc5[nH]ccc5c4)c3)CC2)=C(c2ccc(Cl)cc2)C1 [Venetoclax] (first compound max 10 µM, 7x7, partner max 1 µM), the Bliss excess was 0.0004 in [1]; -0.0394 in the assay with GI-1 (Glioblastoma); 0.0953 in the assay on IMR-5 (Neuroblastoma); -0.0225 in assay [2]; 0.0238 in assay [3]; -0.102 with NB7 (Neuroblastoma). The Bliss excess was 0.0244 in [4]; -0.0375 in [5]; -0.0275 in assay [6]; -0.0515 in assay [7]; 0.0031 in assay [8]; 0.0005 in the assay with RPMI-7951 (Melanoma). Besides, the Bliss excess in assay [9] was -0.093. For the same molecule, the “combination Emax” value stood at 0.283 in assay [10]; 0.656 in the assay with EW-18 (Ewing's Sarcoma); 0.206 in [11]; 0.145 in assay [12]; 0 in assay [13]; 0.194 in assay [14]. The “combination Emax” value in assay [15] was 0.0618.
As to `Cc1c2c(nn1C)CSCc1cc(n(C)n1)CSc1cc(c3ccccc3c1)OCCCc1c(C(=O)O)n(C)c3c-2c(Cl)ccc13` [AZD5991] + C[C@@H]1COCCN1C2=NC(=NC(=C2)C3(CC3)[S@](=N)(=O)C)C4=C5C=CNC5=NC=C4 [AZD6738] (first compound max 1 µM, 7x7, partner max 10 µM), the Bliss excess in [1] is 0.066; with GI-1 (Glioblastoma) it was -0.0238; in the assay on IMR-5 (Neuroblastoma), 0.0245; in [2], 0.0556; in [3] it was -0.0348; with NB7 (Neuroblastoma) it was 0.028. Also, the Bliss excess is -0.033 in assay [4]; -0.0489 in assay [5]; -0.0285 in assay [6]; -0.0052 in [7]; 0.063 in assay [8]; 0.0095 in the assay with RPMI-7951 (Melanoma). The Bliss excess in assay [9] was -0.0626. For the same molecule, the “combination Emax” value in [10] worked out at 0.566; in the assay with EW-18 (Ewing's Sarcoma) it was 0.928; in [11], 0.198; in assay [12], 0.426; in assay [13] it was 0.71; in assay [14], 0.333. For the same molecule, the “combination Emax” value in assay [15] was 0.559.
Take `CC1(C)CCC(CN2CCN(c3ccc(C(=O)NS(=O)(=O)c4ccc(NCC5CCOCC5)c([N+](=O)[O-])c4)c(Oc4cnc5[nH]ccc5c4)c3)CC2)=C(c2ccc(Cl)cc2)C1` [Venetoclax] + Cn1cnc2c(F)c(Nc3ccc(Br)cc3Cl)c(C(=O)NOCCO)cc21 [Selumetinib] (first compound max 1 µM, 7x7, partner max 3 µM): the Bliss excess is -0.0324 in [1]; -0.0095 in the assay on GI-1 (Glioblastoma); 0.0009 with IMR-5 (Neuroblastoma); -0.0102 in [2]; -0.0104 in assay [3]; -0.0252 in the assay with NB7 (Neuroblastoma). In addition, the Bliss excess in assay [4] was -0.0431; in assay [5] it was -0.012; in assay [6] it was -0.065; in assay [7] it was -0.0508; in [8], -0.0038; in the assay with RPMI-7951 (Melanoma), -0.049. Further, the Bliss excess in assay [9] is -0.053. Further, the “combination Emax” value in assay [10] came to 0.294; in the assay on EW-18 (Ewing's Sarcoma), 0.26; in [11], 0.262; in assay [12] it was 0.246; in assay [13], 0.918; in [14], 0.467. Further, in [15], the “combination Emax” value was 0.109.
In the case of `COc1cccc(OCCCN)c1-c1cc(Nc2cnc(C#N)cn2)n[nH]1` [Prexasertib] + O=C(c1cc(Cc2n[nH]c(=O)c3ccccc23)ccc1F)N1CCN(C(=O)C2CC2)CC1 [Olaparib] (first compound max 1 µM, 7x7, partner max 10 µM), the Bliss excess in assay [1] was -0.0494; in the assay with GI-1 (Glioblastoma), -0.0364; with IMR-5 (Neuroblastoma), -0.0097; in assay [2], 0.0491; in assay [3], -0.117; in the assay on NB7 (Neuroblastoma) it was -0.113. Also, the Bliss excess in assay [4] is 0.0418; in assay [5], -0.0407; in [6], -0.127; in [7], -0.0645; in [8] it was -0.017; in the assay with RPMI-7951 (Melanoma) it was -0.0358. Moreover, in [9], the Bliss excess was -0.153. In addition, the “combination Emax” value in assay [10] worked out at 0.694; with EW-18 (Ewing's Sarcoma), 0.764; in [11], 0.405; in assay [12] it was 0.573; in assay [13], 0.7; in [14], 0.663. The “combination Emax” value in [15] is 0.679.
For `COc1nnc2ccc(N3CCC(c4ccc(OCCN5CCN(C)C(=O)[C@H]5C)cc4)CC3)nn12` [AZD5153] + CCN(CCO)CCCOc1ccc2c(Nc3cc(CC(=O)Nc4cccc(F)c4)[nH]n3)ncnc2c1 [AZD2811] (first compound max 1 µM, 7x7, partner max 1 µM), the Bliss excess was -0.0242 in assay [1]; 0.0977 in the assay with GI-1 (Glioblastoma); -0.0151 with IMR-5 (Neuroblastoma); -0.0134 in assay [2]; -0.0309 in assay [3]; -0.0296 with NB7 (Neuroblastoma). The Bliss excess was -0.0621 in assay [4]; -0.0549 in [5]; -0.0589 in [6]; -0.0194 in assay [7]; -0.0108 in assay [8]; -0.0243 in the assay on RPMI-7951 (Melanoma). In addition, the Bliss excess in assay [9] was -0.0694. In addition, the “combination Emax” value turned out to be 0.78 in assay [10]; 0.768 in the assay with EW-18 (Ewing's Sarcoma); 0.193 in [11]; 0.743 in assay [12]; 0.581 in assay [13]; 0.531 in assay [14]. In addition, the “combination Emax” value in assay [15] came to 0.816.
